From patent US10316050B2, “PT (IV) complexes containing 4,4′-disubstituted-2,2′-bipyridyl and their use in cancer therapy” (THE BOARD OF REGENTS OF THE NEVADA SYSTEM OF HIGHER …, priority 2014, dated 2019) come the findings set out here.

Read-outs that look alike come from different tables or passages of the source.

Format in all cases: cell-based, human
The subject of one assay is A549 lung cancer cells. The assay is described as follows: MTS cell viability assay, A549. The following applies: for EC50: read-out: EC50 (effective concentration that resulted in 50% cell viability). On the procedure: (§1) Human breast (HCC38, MCF-7, MDA-MB-231, SK-BR-3, T-47D, and ZR-75-1), lung (A549 and H520), and prostate (DU145 and PC-3) cancer cell lines were obtained from American Culture Type Collection (ATCC). The HCC38, MCF-7, MDA-MB-231, SK-BR-3, T-47D, ZR-75-1, and A549 cells were grown in MEM supplemented with 10% FBS, 25 mM HEPES buffer (pH 7.4), penicillin (100 U/mL), and streptomycin (100 μg/mL). The H520, DU145, and PC-3 cell lines were grown in RPMI-1640 supplemented with 10% FBS, 25 mM HEPES buffer (pH 7.4), penicillin (100 U/mL), and streptomycin (100 μg/mL). All cell lines were maintained at 37° C. in a humidified, 5% CO2 atmosphere.
(§2) Cells were cultured at a density of 2-3.5×10^3 cells per well in flat bottomed 96-well plates in 100 μL of complete growth medium and incubated for 2 days to reach ˜50% confluence. The cells were then treated with solvent or the appropriate drugs (CDDP stock was dissolved in 0.15 M NaCl, carboplatin stock was dissolved in 5% glucose, synthesized Pt(IV) complexes were dissolved in DMSO) for 1 hour, washed three times with 100 μL PBS, and incubated in 100 μL of fresh medium. After 2 days, the medium was replaced with 120 μL of medium containing CellTiter 96® Aqueous One Solution Reagent (MTS reagent) (Promega, Madison, Wis.). The cells were incubated at 37° C. for 4 hours and the cell viability was determined by measuring the absorbance at 490 nm using a Tecan Infinite M1000 microplate reader. The 48 h treatment was done in a similar manner, except the cells were not washed after treatment and the MTS reagent was immediately added. Viability of treated groups was calculated as a percent of control and graphed with GraphPad Prism.
(§3) The anti-proliferative activities of Pt(IV) complexes were determined in two lung (A549 and H520), two prostate (DU145 and PC-3), and six breast (HCC38, MCF-7, MDA-MB-231, SK-BR-3, T-47D, and ZR-75-1) cancer cell lines. The cells were treated with increasing concentrations of cisplatin (CDDP), carboplatin, or the Pt(IV) complexes for 1 or 48 hours, and the viability was measured using an MTS colorimetric cell proliferation assay. Graphs of the results are shown for DU145 (FIG. 8A), PC-3 (FIG. 8B), SK-BR-3 (FIG. 8C), ZR-75-1 (FIG. 8D), A549 (FIG. 8E), and MCF-7 (FIG. 8F).

In the next assay the test system is H520 lung cancer cells. The assay is described as follows: MTS cell viability assay, H520. Conditions: read-out: EC50 (effective concentration that resulted in 50% cell viability). As to the method: as §1, §2, §3
Assay [1] relates to DU145 prostate cancer cells. Conditions: for EC50: read-out: EC50 (effective concentration that resulted in 50% cell viability); for effect on cell viability (in words): DU145, 1 hour treatment (FIG. 8A, top), up to 1 mM carboplatin, 100 μM Pt(IV)-1C, 50 μM Pt(IV)-2C. As to the method: as §1, §2, §3
(§4) The anti-proliferative activities of certain Pt(II) complexes were determined in DU145, PC-3, and SK-BR-3 cells. The cells were treated with increasing concentrations of cisplatin (CDDP) or the Pt(II) complexes for 1 or 48 hours, and the viability was measured using an MTS colorimetric cell proliferation assay.

Assay [2] concerns PC-3 prostate cancer cells. Kind of assay: MTS cell viability assay, PC-3. Conditions: read-out: EC50 (effective concentration that resulted in 50% cell viability). As to the method:
as §1, §2, §3, §4

For assay [3], the system named is HCC38 breast cancer cells. Kind of assay: MTS cell viability assay, HCC38. The following applies: read-out: EC50 (effective concentration that resulted in 50% cell viability). As to the method:
as §1, §2, §3

The test system of assay [4] is MCF-7 breast cancer cells. The assay is described as follows: MTS cell viability assay, MCF-7. The following applies: for EC50: read-out: EC50 (effective concentration that resulted in 50% cell viability). As to the method:
as §1, §2, §3

Assay [5] deals with MDA-MB-231 breast cancer cells. Kind of assay: MTS cell viability assay, MDA-MB-231. Conditions: read-out: EC50 (effective concentration that resulted in 50% cell viability). As to the method:
as §1, §2, §3

The test system of assay [6] is SK-BR-3 breast cancer cells. The assay is described as follows: MTS cell viability assay, SK-BR-3. The following applies: read-out: EC50 (effective concentration that resulted in 50% cell viability). As to the method: as §1, §2, §3, §4
Assay [7] deals with T-47D breast cancer cells. The assay is described as follows: MTS cell viability assay, T-47D. As to the method:
as §1, §2, §3

The subject of assay [8] is ZR-75-1 breast cancer cells. Kind of assay: MTS cell viability assay, ZR-75-1. The following applies: read-out: EC50 (effective concentration that resulted in 50% cell viability). On the procedure: as §1, §2, §3
The mark [9] stands for this setting: MDA-MB-231, 1 h treatment, Table 2.
The mark [10] stands for this setting: MDA-MB-231, 48 h treatment, Table 4.
Setting [11] is: SK-BR-3, 1 h treatment, Table 2.
Setting [12] is: SK-BR-3, 48 h treatment, Table 4.
The mark [13] stands for this setting: 1 h treatment, Table 2, read-out: EC50 (effective concentration that resulted in 50% cell viability).
The mark [14] stands for this setting: 48 h treatment, Table 4, read-out: EC50 (effective concentration that resulted in 50% cell viability).
[15] abbreviates: ZR-75-1, 1 h treatment, Table 2.
[16] abbreviates: ZR-75-1, 48 h treatment, Table 4.
Where [17] appears, read: MDA-MB-231, 1 h treatment, Table 3.
The mark [18] stands for this setting: SK-BR-3, 1 h treatment, Table 3.
The mark [19] stands for this setting: 1 h treatment, Table 3, read-out: EC50 (effective concentration that resulted in 50% cell viability).
Where [20] appears, read: 48 h, Table 5, read-out: EC50 (effective concentration that resulted in 50% cell viability).
Setting [21] is: ZR-75-1, 1 h treatment, Table 3.

As for `CCCCCOc1ccnc(-c2cc(OCCCCC)ccn2)c1.[Cl][Pt][Cl]` [Pt(II)-5C], the EC50 came out at 18 ± 1 µM in the assay on A549 lung cancer cells (A549, 1 h treatment, Table 2); 16.5 ± 0.5 µM in the assay with A549 lung cancer cells (A549, 48 h treatment, Table 4); 23 ± 5 µM with H520 lung cancer cells (H520, 1 h treatment, Table 2); 17 ± 3 µM in the assay on H520 lung cancer cells (H520, 48 h treatment, Table 4); 8 ± 2 µM in assay [1] (DU145, 1 h treatment, Table 2); 6 ± 0.7 µM in assay [1] (DU145, 48 h treatment, Table 4). Further, the EC50 came to 7 ± 1 µM in assay [2] (PC-3, 1 h treatment, Table 2); 7.3 ± 0.7 µM in assay [2] (PC-3, 48 h treatment, Table 4); 13 ± 5 µM in assay [3] (HCC38, 1 h treatment, Table 2); 10 ± 2 µM in [3] (HCC38, 48 h treatment, Table 4); 21 ± 5 µM in assay [4] (MCF-7, 1 h treatment, Table 2); 15 ± 7 µM in assay [4] (MCF-7, 48 h treatment, Table 4). Also, the EC50 in assay [5] (setting [9]) worked out at 4 ± 2 µM; in assay [5] (setting [10]) it was 4.1 ± 0.2 µM; in assay [6] (setting [11]), 2.8 ± 0.8 µM; in assay [6] (setting [12]) it was 2.4 ± 0.4 µM; in assay [7] (setting [13]) it was 9 ± 3 µM; in [7] (setting [14]), 3 ± 1 µM. The EC50 in [8] (setting [15]) turned out to be 8 ± 3 µM; in assay [8] (setting [16]), 6.6 ± 0.7 µM.

Consider `CCCCCCOc1ccnc(-c2cc(OCCCCCC)ccn2)c1.[Cl][Pt][Cl]` [Pt(II)-6C], for which the EC50 in the assay with A549 lung cancer cells (A549, 1 h treatment, Table 2) is 66 ± 16 µM; in the assay with A549 lung cancer cells (A549, 48 h treatment, Table 4) it was 19.1 ± 0.8 µM; in the assay with H520 lung cancer cells (H520, 1 h treatment, Table 2), over 50 µM; in the assay on H520 lung cancer cells (H520, 48 h treatment, Table 4), 18 ± 1 µM; in assay [1] (DU145, 1 h treatment, Table 2), 2.1 ± 0.1 µM; in assay [1] (DU145, 48 h treatment, Table 4), 1.9 ± 0.1 µM. The EC50 turned out to be 2.24 ± 0.03 µM in [2] (PC-3, 1 h treatment, Table 2); 2.7 ± 0.1 µM in assay [2] (PC-3, 48 h treatment, Table 4); 16 ± 5 µM in assay [3] (HCC38, 1 h treatment, Table 2); 14 ± 4 µM in assay [3] (HCC38, 48 h treatment, Table 4); 80 ± 30 µM in assay [4] (MCF-7, 1 h treatment, Table 2); 12 ± 4 µM in assay [4] (MCF-7, 48 h treatment, Table 4). In addition, the EC50 in [5] (setting [9]) stood at 6 ± 3 µM; in assay [5] (setting [10]), 4 ± 1 µM; in [6] (setting [11]), 1.84 ± 0.03 µM; in assay [6] (setting [12]), 1.8 µM; in assay [7] (setting [13]), 3.2 ± 0.8 µM; in assay [7] (setting [14]), 2.1 ± 0.2 µM. Further, the EC50 in assay [8] (setting [15]) was determined as 7 ± 2 µM; in [8] (setting [16]), 6.4 ± 0.4 µM.

As to `CC(=O)[O][Pt]([Cl])([Cl])[O]C(C)=O.CCOc1ccnc(-c2cc(OCC)ccn2)c1` [Pt(IV)-2C, [Pt(IV)Cl2(OAc)2(4,4′-diethoxy-2,2′-bipyridine)]], the EC50 in the assay with A549 lung cancer cells (A549, 1 h treatment, Table 3) is over 50 µM; with A549 lung cancer cells (A549, 48 h, Table 5), over 50 µM; in the assay on H520 lung cancer cells (H520, 1 h treatment, Table 3), over 100 µM; with H520 lung cancer cells (H520, 48 h, Table 5), 61 ± 2 µM; in assay [1] (DU145, 1 h treatment, Table 3) it was over 50 µM; in assay [1] (DU145, 48 h, Table 5), 10 ± 4 µM. The EC50 in [2] (PC-3, 1 h treatment, Table 3) was over 50 µM; in assay [2] (PC-3, 48 h, Table 5), 20 ± 2 µM; in [3] (HCC38, 1 h treatment, Table 3), 93 ± 10 µM; in [3] (HCC38, 48 h, Table 5) it was 30 ± 9 µM; in [4] (MCF-7, 1 h treatment, Table 3), over 100 µM; in assay [4] (MCF-7, 48 h, Table 5), over 100 µM. Also, the EC50 was over 100 µM in assay [5] (setting [17]); 28 ± 7 µM in assay [5] (MDA-MB-231, 48 h, Table 5); 40 ± 10 µM in [6] (setting [18]); 8.3 ± 0.7 µM in assay [6] (SK-BR-3, 48 h, Table 5); 46 ± 8 µM in assay [7] (setting [19]); 0.95 ± 0.03 µM in [7] (setting [20]). Further, the EC50 in assay [8] (setting [21]) was over 50 µM; in [8] (ZR-75-1, 48 h, Table 5), 17 ± 7 µM. Also, the “effect on cell viability (in words)” value with A549 lung cancer cells (A549, 48 hour treatment (FIG. 8E)) is reported as “had no effect”; in assay [1] it was “did not have any effects”; in assay [4] (MCF-7, 48 hour treatment (FIG. 8F)), “had no effect”.

For `CC(=O)[O][Pt]([Cl])([Cl])[O]C(C)=O.CCCOc1ccnc(-c2cc(OCCC)ccn2)c1` [Pt(IV)-3C, [Pt(IV)Cl2(OAc)2(4,4′-dipropoxy-2,2′-bipyridine)]], the “effect on cell viability (in words)” value with A549 lung cancer cells (A549, 1 hour treatment, at the concentrations tested (FIG. 8E)) is recorded as “did not have any effect”; in assay [1], “least effective among the five active compounds”; in assay [4] (MCF-7, 1 hour treatment, at the concentrations tested (FIG. 8F)), “did not have any effect”. In addition, the EC50 in the assay with A549 lung cancer cells (A549, 1 h treatment, Table 3) is over 50 µM; in the assay with A549 lung cancer cells (A549, 48 h, Table 5), 23 ± 1 µM; with H520 lung cancer cells (H520, 1 h treatment, Table 3), 80 ± 20 µM; in the assay with H520 lung cancer cells (H520, 48 h, Table 5), 8 ± 6 µM; in assay [1] (DU145, 1 h treatment, Table 3) it was 24 ± 7 µM; in assay [1] (DU145, 48 h, Table 5), 1 ± 1 µM. For the same compound, the EC50 is 23 ± 0.3 µM in [2] (PC-3, 1 h treatment, Table 3); 1.1 ± 0.4 µM in assay [2] (PC-3, 48 h, Table 5); 26 ± 6 µM in assay [3] (HCC38, 1 h treatment, Table 3); 8 ± 1 µM in [3] (HCC38, 48 h, Table 5); over 100 µM in [4] (MCF-7, 1 h treatment, Table 3); 29 ± 2 µM in assay [4] (MCF-7, 48 h, Table 5). The EC50 stood at 34 ± 7 µM in assay [5] (setting [17]); 6.1 ± 0.4 µM in [5] (MDA-MB-231, 48 h, Table 5); 19 ± 2 µM in assay [6] (setting [18]); 0.9 ± 0.1 µM in [6] (SK-BR-3, 48 h, Table 5); 24 ± 3 µM in assay [7] (setting [19]); 0.59 ± 0.01 µM in [7] (setting [20]). Further, the EC50 in assay [8] (setting [21]) was 24 ± 3 µM; in assay [8] (ZR-75-1, 48 h, Table 5) it was 1.21 ± 0.04 µM.
